Calls of active or inactive are those of the source.
Columns and labels:
Streptococcus = assay: Group A Streptococcus viability loss, dose response, counter-screen for streptokinase expression inhibitor project, luminescence, BacTiterGlo (AID 1915); assay type: functional, organism-based;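 note: potency for reduction of bacterial viability or growth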
[1] = cytotoxicity toward NIH3T3 fibroblasts, dose response, counter-screen, cell-based, ATP luminescence, mouse fibroblasts (AID 2010); assay type: functional;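 note: cells exposed to compound for about 90 hours before reading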
[2] = molecular target: Serine/threonine-protein phosphatase PP1-alpha catalytic subunit (Homo sapiens, UniProt P62136); assay: PP1 phosphatase inhibitors, dose response, biochemical, fluorescence (AID 2394)
[3] = test system: Streptococcus sp. 'group A'; assay: growth inhibition of control SK(-) GAS strain, dose response, counter-screen for streptokinase expression inhibitor project, luminescence, kanamycin, BacTiterGlo, confirmation (AID 1900); assay type: functional, organism-based
[4] = molecular target: Protein-tyrosine kinase 2-beta (Homo sapiens, UniProt Q14289);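 note: potency of inhibitors of PYK2 kinase phosphorylation of poly-GT substrate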
INS1 = assay: beta cell apoptosis inhibitors, cytokine rescue, dose response, luminescence, retest (AID 449756); assay type: functional, cell-based; conditions: Rattus norvegicus;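 note: cell death triggered by IL-1 beta plus TNF-alpha plus IFN-gamma mixture; protective hits raise ATP signal compared with cytokine alone wells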
[5] = molecular target: Serine/threonine-protein phosphatase (Homo sapiens, UniProt Q9BPW0); assay: PP5 phosphatase inhibitors, dose response, biochemical, fluorescence (AID 2395)
[6] = enhancers of respiration in Yfh1-depleted yeast, dose response, Friedreich's ataxia, plus single-dose screen (AID 1465); assay type: functional;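 note: yeast depleted of Yfh1p frataxin homolog grown on glycerol needing respiration; WST-1 tetrazolium dye reduction as measure of cellular dehydrogenase metabolic activity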
Streptokinase A = molecular target: T1, Streptokinase A (Streptococcus pyogenes serotype M1, UniProt P10520); assay: S. pyogenes streptokinase expression inhibitors, potency, dose response, plasminogen activation absorbance, OD405 (AID 1914); assay type: functional, Streptococcus pyogenes M1 GAS;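 note: secreted streptokinase activity via plasminogen activation per viability signal from cell pellet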
T1 sequence (P10520 whole entry): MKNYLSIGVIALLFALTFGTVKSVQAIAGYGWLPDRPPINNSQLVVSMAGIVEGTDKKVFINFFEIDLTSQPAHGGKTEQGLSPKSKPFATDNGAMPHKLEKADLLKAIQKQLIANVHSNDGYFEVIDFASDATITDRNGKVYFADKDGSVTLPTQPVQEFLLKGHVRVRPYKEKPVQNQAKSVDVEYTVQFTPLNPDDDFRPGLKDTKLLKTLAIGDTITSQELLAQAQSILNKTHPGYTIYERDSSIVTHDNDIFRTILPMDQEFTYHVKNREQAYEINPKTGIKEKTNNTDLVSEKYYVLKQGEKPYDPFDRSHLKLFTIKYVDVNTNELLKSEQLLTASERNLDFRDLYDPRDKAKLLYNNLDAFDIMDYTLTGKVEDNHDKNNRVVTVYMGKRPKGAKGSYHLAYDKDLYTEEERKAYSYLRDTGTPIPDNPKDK

[7] = inhibitors of intracellular T. cruzi replication, confirmation, NIH3T3 host cells, beta-gal luminescence (AID 2044); assay type: functional, cell-based;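 note: intracellular parasites grown in NIH/3T3 mouse fibroblasts as host cells; luminescent beta-galactosidase reporter signal from transgenic T. cruzi replicating inside host cells; inhibitors lower the luminescence signal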
[8] = molecular target: T2, Apoptotic protease-activating factor 1 (Homo sapiens, UniProt O14727); assay type: functional
T2 sequence (O14727 whole entry): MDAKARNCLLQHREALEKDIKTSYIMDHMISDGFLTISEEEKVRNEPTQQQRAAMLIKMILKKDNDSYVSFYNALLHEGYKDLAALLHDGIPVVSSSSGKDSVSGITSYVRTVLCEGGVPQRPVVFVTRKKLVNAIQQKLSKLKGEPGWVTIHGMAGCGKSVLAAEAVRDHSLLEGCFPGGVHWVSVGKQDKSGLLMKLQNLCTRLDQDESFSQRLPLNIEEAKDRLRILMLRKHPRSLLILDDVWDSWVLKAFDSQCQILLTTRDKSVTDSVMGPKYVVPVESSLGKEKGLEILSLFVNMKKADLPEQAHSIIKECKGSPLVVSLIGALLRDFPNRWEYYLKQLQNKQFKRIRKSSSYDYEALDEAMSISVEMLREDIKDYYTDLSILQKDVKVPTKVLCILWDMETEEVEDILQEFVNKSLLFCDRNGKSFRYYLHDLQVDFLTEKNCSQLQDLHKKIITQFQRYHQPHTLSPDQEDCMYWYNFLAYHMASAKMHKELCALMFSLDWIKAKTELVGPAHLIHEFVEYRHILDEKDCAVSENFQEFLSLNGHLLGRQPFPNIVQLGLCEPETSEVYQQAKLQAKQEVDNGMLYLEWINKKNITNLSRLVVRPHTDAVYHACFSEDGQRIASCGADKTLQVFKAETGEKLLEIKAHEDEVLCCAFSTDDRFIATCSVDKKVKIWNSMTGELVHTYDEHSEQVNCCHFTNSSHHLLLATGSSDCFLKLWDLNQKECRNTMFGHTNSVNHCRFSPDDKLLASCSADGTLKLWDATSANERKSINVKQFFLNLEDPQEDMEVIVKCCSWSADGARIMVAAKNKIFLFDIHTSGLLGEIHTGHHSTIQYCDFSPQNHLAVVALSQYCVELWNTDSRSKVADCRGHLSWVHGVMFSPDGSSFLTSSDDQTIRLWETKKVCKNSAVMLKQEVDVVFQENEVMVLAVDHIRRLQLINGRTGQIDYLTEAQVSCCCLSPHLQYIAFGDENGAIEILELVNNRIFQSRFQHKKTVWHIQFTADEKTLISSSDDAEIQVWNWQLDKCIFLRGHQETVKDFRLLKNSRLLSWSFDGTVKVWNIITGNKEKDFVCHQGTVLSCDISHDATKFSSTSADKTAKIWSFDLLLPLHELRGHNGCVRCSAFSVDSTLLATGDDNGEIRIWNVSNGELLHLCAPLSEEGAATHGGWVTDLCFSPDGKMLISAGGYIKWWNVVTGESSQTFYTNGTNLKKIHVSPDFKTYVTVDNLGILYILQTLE

BJ [9] = assay: cytotoxicity toward Ras-transformed BJeLR fibroblasts, dose response, cell-based, alamar blue fluorescence, cherrypicked samples (AID 2631); assay type: functional; conditions: Homo sapiens;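 note: confirmatory dose-response assay in RAS-dependent BJ fibroblasts engineered with TERT, LT and ST, with cytotoxicity read by fluorescence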
[10] = inhibitors of firefly luciferase expression or activity, dose response, H4 neuroglioma cells, luminescence (AID 1990); assay type: functional, cell-based
HeLa = assay: Cytotoxicity counterscreen assay for transcriptional activators of heat shock protein 70 (Hsp70). [Related pubchem assays: 1203, 1252 ]; assay type: functional; conditions: Homo sapiens;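 note: cells exposed to compound for 16 hours before readout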
[11] = molecular target: Heat shock protein HSP 90-alpha (Homo sapiens, UniProt P07900); assay type: functional, organism-based
[12] = molecular target: G-protein coupled receptor 55 (Homo sapiens, UniProt Q9Y2T6); assay: GPR55 antagonists blocking LPI-driven arrestin recruitment, primary screen, imaging, U2OS, beta-arrestin-GFP, LPI agonist (AID 2013); assay type: functional;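 note: antagonist potency measured as reduced agonist-driven arrestin aggregation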
BJ [13] = assay: cytotoxicity toward BJ-TERT fibroblasts, dose response, cell-based, RAS-independent, luminescence (AID 1933); assay type: functional; conditions: Homo sapiens
[14] = inhibitors of SNCA 5'UTR-driven reporter translation, confirmation, H4 neuroglioma cells, luminescence (AID 1988); assay type: functional, cell-based
[15] = Luminescence Cell-Based Dose Response HTS to Identify Inhibitors of 5'UTR Stem-Loop Driven Prion Protein mRNA Translation in H4 Neuroglioblastoma Cells. [Related pubchem assays: 1827 (Project Summary), 1813 (Primary HTS)]; assay type: functional
BJ [16] = assay: cytotoxicity toward BJ-TERT-LT-ST fibroblasts, dose response, cell-based, RAS-independent, luminescence (AID 1935); assay type: functional; conditions: Homo sapiens;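 note: BJ fibroblasts immortalized with TERT plus LT and ST oncogenes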
BJ [17] = assay: cells; assay type: functional, cell-based; conditions: Homo sapiens
[18] = cytotoxicity toward DRD oncogenic fibroblasts, dose response, cell-based, non-viral oncogenic, luminescence (AID 1934); assay type: functional; conditions: Homo sapiens
[19] = microbe, parasite or virus in culture; assay type: functional; conditions: Mycobacterium tuberculosis
[20] = molecular target: Neuropeptide Y receptor type 1 (Homo sapiens, UniProt P25929); assay: Fluorescence-based counterscreen for agonists of NPY-Y2: cell-based high-throughput dose response assay for agonists of NPY-Y1.; assay type: functional
HEK293 = assay: Fluorescence-based counterscreen for potentiators or agonists of NPY-Y2: cell-based high-throughput dose response assay to identify inhibitors of cyclic nucleotide gated ion channel (CNGC) activity. In this assay, the parental HEK293 cell line transfected with a cyclic-nucleotide gated ion channel (CNGC)-based cAMP sensor is used to measure inhibition of isoproterenol-induced CNGC activity by test compound.; assay type: functional; conditions: Homo sapiens;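 note: stimulus is 1 µM isoproterenol at EC100 plus PDE inhibitor Ro 20-1724 at 25 µM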
[21] = molecular target: Neuropeptide Y receptor type 2 (Homo sapiens, UniProt P49146); assay: Fluorescence-based cell-based high-throughput dose response assay for agonists of NPY-Y2. [Related pubchem assays: 1703 (Screening assay (CNGC inhibitors).), 1359 (Screening assay (NPY-Y2 potentiators or agonists).), 1304 (Screening assay (NPY-Y1 potentiators or agonists).), 1710 (Screening assay (NPY-Y2 agonists).), 1791 (Summary AID.)]; assay type: functional
Sequence of Neuropeptide Y receptor type 2 (P49146 whole entry): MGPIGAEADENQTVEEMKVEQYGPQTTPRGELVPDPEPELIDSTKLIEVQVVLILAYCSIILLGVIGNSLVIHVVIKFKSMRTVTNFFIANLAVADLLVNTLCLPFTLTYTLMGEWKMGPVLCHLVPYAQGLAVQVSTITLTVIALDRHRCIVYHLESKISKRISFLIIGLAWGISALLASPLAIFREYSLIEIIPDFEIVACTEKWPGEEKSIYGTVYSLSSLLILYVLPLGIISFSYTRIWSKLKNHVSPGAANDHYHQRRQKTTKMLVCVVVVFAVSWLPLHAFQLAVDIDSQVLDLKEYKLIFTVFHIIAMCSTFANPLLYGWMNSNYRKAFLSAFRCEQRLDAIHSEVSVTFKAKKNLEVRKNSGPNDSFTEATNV

Sequence of Serine/threonine-protein phosphatase PP1-alpha catalytic subunit (P62136 whole entry): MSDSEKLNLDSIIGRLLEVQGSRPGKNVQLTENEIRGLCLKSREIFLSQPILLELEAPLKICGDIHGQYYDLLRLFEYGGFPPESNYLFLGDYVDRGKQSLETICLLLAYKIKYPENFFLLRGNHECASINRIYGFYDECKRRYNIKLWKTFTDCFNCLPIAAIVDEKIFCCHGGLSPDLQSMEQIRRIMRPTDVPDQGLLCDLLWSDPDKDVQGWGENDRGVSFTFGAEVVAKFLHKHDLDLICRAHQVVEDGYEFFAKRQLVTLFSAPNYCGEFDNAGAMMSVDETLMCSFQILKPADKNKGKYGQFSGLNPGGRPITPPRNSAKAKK
Sequence of G-protein coupled receptor 55 (Q9Y2T6 whole entry): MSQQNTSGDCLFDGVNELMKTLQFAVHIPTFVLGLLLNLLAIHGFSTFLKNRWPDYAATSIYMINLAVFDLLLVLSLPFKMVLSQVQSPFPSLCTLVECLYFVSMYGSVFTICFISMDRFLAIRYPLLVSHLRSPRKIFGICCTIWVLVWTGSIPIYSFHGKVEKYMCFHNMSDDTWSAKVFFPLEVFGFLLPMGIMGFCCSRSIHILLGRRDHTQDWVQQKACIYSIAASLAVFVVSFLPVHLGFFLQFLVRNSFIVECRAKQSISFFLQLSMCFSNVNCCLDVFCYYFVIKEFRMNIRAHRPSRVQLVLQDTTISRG
Sequence of Neuropeptide Y receptor type 1 (P25929 whole entry): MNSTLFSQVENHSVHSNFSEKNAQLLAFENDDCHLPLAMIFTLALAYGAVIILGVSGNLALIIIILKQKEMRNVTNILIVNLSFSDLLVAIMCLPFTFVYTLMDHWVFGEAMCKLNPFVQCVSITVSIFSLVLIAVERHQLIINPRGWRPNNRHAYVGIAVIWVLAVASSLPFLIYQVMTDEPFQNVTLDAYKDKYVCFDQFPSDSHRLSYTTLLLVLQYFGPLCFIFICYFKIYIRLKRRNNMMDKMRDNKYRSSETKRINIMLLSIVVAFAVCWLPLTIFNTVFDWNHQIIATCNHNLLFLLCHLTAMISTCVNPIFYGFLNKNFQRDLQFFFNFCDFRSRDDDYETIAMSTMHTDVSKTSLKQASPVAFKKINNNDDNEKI
Sequence of Protein-tyrosine kinase 2-beta (Q14289 whole entry): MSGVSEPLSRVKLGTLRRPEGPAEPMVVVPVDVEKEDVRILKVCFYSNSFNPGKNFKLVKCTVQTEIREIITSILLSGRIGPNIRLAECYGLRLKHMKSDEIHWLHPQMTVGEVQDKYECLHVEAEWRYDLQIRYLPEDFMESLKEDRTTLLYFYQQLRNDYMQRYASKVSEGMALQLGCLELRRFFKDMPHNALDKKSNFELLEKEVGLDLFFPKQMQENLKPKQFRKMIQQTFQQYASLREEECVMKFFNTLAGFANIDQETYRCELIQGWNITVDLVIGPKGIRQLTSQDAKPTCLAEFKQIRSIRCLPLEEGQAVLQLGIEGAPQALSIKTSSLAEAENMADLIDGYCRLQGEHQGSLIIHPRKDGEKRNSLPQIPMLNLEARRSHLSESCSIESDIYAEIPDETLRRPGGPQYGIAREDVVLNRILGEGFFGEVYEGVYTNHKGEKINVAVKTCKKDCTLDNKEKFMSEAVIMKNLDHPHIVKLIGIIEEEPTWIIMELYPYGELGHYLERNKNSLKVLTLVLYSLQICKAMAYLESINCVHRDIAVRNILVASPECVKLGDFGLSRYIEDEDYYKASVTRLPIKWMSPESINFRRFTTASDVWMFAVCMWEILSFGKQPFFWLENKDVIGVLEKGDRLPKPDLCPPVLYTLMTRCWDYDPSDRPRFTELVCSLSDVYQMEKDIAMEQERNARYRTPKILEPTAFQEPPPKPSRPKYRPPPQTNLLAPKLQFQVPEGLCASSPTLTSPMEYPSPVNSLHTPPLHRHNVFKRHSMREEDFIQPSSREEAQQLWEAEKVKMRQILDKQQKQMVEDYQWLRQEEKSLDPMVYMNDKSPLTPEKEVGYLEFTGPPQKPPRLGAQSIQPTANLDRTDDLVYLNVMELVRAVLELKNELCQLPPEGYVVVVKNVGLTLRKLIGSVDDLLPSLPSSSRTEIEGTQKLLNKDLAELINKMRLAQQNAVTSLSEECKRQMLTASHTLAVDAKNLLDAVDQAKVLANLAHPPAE
Sequence of Serine/threonine-protein phosphatase (Q9BPW0 whole entry): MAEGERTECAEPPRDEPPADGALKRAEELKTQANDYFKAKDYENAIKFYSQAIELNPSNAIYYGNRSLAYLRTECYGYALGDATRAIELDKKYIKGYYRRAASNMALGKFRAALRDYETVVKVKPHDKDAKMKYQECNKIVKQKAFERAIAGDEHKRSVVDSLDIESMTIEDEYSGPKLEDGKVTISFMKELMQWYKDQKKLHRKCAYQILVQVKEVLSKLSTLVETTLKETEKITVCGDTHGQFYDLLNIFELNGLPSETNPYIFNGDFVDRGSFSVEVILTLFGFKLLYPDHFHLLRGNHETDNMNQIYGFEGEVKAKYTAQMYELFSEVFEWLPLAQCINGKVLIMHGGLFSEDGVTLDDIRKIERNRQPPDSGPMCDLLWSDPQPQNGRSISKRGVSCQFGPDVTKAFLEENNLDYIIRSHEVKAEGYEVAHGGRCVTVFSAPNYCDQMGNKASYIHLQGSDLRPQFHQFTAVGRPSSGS

SMILES: Cc1ccc(Cl)cc1NC1=C/C(=N\S(=O)(=O)c2cccs2)c2ccccc2C1=O
- EC50 (Streptococcus): 2.98 µM (active)
- EC50 [1]: 3.19 µM (active)
- IC50 [2]: 38.9 µM (not active)
- EC50 [3]: 0.427 µM (active)
- IC50 [4]: > 69.5 µM (not active)
- AC50 (INS1): 0.608 µM (active)
- IC50 [5]: 2.49 µM (active)
- EC50 [6]: > 100 µM (active)
- EC50 (Streptokinase A): > 150 µM (not active)
- EC50 [7]: 1.6 µM (active)
- IC50 [8]: 1.85 µM (active)

SMILES: CCOC(=O)/C(=C\c1cccnc1)C(=O)c1cc(C(C)=O)c(Nc2ccccc2)s1
- EC50 (BJ [9]): 0.503 µM (active)
- EC50 [10]: > 120 µM (not active)
- CC50 (HeLa): 2.91 µM (active)
- AC50 [11]: 2.18 µM (active)
- IC50 [12]: 3.09 µM (active)
- EC50 (BJ [13]): 2.38 µM (inconclusive)
- EC50 [14]: 8.02 µM (active)
- EC50 [15]: 8.03 µM (active)
- EC50 (BJ [16]): 6.68 µM (inconclusive)
- EC50 (BJ [17]): 7.78 µM (inconclusive)
- EC50 [18]: 2.34 µM (active)

SMILES: CCN(CC)S(=O)(=O)c1ccc2ncc(C(=O)NCCC3=CCCCC3)c(O)c2c1
- CC50 [19]: > 40 µM (active)
- EC50 [20]: 13.3 µM (not active)
- EC50 (HEK293): 10.1 µM (not active)
- EC50 [21]: 13.8 µM (not active)
